Read-outs that look alike come from different tables or passages of the source.
Assay: Thymol quantification in quail droppings (HS-SPME/GC-MS) during chronic dietary supplementation
Assay type: in vivo, Coturnix japonica
Conditions: for concentration at 2 days / concentration at 9 days / concentration at 16 days / concentration at 26 days: female, Japanese quail (Coturnix japonica), droppings, oral, read-out: THY concentration in droppings
Source text: A total of 50 eighty-five days-old female quail of homogeneous body weights (251 ± 1 g; Mean ± SE) and in their egg-laying peak were selected from an initial group of 96 female individuals. All birds continued receiving a basal diet between 85 and 100 days of age and all variables (see below for details) were registered along this period (Pre-supplementation period, Fig 1). From 100 to 128 days of age (S period, Fig 1), females were randomly assigned to either a chronic dietary supplementation with one of 3 THY doses (THY2, THY4 and THY6; 10 females each) or to one of 2 control groups (basal diet, BASAL, and basal diet with vehicle solution, VEHICLE; 10 females each). Once finished the S period, half of the quail were slaughtered for histological analysis (n = 25; Slaughter 1, Fig 1) and the other half were subjected to a pS period of 21 days, during which all females received the BASAL diet (pS, Fig 1). After this period, the remaining 25 animals were also slaughtered for histological analysis (Slaughter 2, Fig 1). In this way, we assessed whether THY induced changes in variables indicative of tissue damage and if so, whether the potential damages could reverse after 3 weeks of supplement withdrawal.
To assess changes in egg yolk total FA composition, egg physical characteristics, laying rate, body weight, feed intake and general welfare, during the S and pS periods, five sampling points were defined (Sample points, Fig 1): one initial sample point (at 0 days of S); three sample points during the S period (at 7, 14 and 28 days of S); and one sample point at the end of the pS period (21 days of pS). It should be noted that for determinations of THY concentration, eggs and quail droppings were collected offset from the other variables measured by 2 days, thus were collected on days 2, 9, 16, and 26 days of S, and 17 days of pS, respectively.
Thymol was commercially obtained from Sigma-Aldrich (SAFC®, ⩾99%; FCC, Saint Louis, MO, USA). Supplemented quail were provided 2, 4 or 6.25 g of THY per kg of feed. For this end, THY was prepared in a 2.4, 4.8 and 7.5% w/v ethanolic solution and uniformly sprayed on fresh feed. The feed was prepared and administrated daily, to minimize THY volatilization from feed before its consumption by females. The doses were selected considering two factors. The first, the concentration range for which the transfer of THY to the chicken and/or quail egg has been established. Second, the concentrations of THY supplementation that have shown biological effects. […] In this context, THY4 is and intermediate dose between the last two. Nutrient and FA compositions of the diets supplied were identical between each other and are reported in S1, S2 and S3 Tables, and are in accordance with the National Research Council recommendation.
Egg yolks and droppings of each female were obtained at each sample point (Sample points, Fig 1) and THY concentration was immediately measured by head space-solid phase microextraction followed by gas chromatography-mass spectrometry (HS-SPME/GC-MS) according to Fernandez et al.. SPME was performed with a manual holder with 100 um polydimethylsiloxane (PDMS) fiber. An aliquot of egg yolk (3 g), droppings (5 g) or feed (5 g) was put in a sealed 20 mL glass vial, spiked at the corresponding level with the standard m-cresol (Sigma-Aldrich; ≥ 99% (GC); Saint Louis, MO, USA) stock solution, and vortexed for 5 min. The vials were placed in a water bath and the PDMS fiber was exposed to the headspace for 30 min at 60°C and 5 min at 40°C for egg yolk and droppings or feed, respectively. The fiber was then inserted directly into the GC injector for desorption at 250°C for 10 min in splitless mode. Chromatography analysis was carried out in a Perkin Elmer Clarus 600 equipped with a PSSI injector and a quadrupole MS detector (Perkin Elmer, USA). Turbo Mass 5.4.2 software was used to control and acquire data from GC–MS. […]

[1] = THY2, 2 g of thymol/kg of feed, pS, 17 days of supplement withdrawal
[2] = THY4, 4 g of thymol/kg of feed, pS, 17 days of supplement withdrawal
[3] = THY6, 6.25 g of thymol/kg of feed, pS, 17 days of supplement withdrawal

Cc1ccc(C(C)C)c(O)c1 [THY, 2 isopropyl-5-methylphenol]
Percentage of THY transferred to droppings in relation to the amount ingested (THY2, 2 g of thymol/kg of feed, 2 days of S): 0.53% | Percentage of THY transferred to droppings in relation to the amount ingested (THY2, 2 g of thymol/kg of feed, 9 days of S): 2.33% | Percentage of THY transferred to droppings in relation to the amount ingested (THY2, 2 g of thymol/kg of feed, 16 days of S): 2.41% | Percentage of THY transferred to droppings in relation to the amount ingested (THY2, 2 g of thymol/kg of feed, 26 days of S): 3.47% | Percentage of THY transferred to droppings in relation to the amount ingested [1]: 0.04% | THY concentration in droppings [1]: 4.37 ng/g | Percentage of THY transferred to droppings in relation to the amount ingested (THY4, 4 g of thymol/kg of feed, 2 days of S): 0.25% | Percentage of THY transferred to droppings in relation to the amount ingested (THY4, 4 g of thymol/kg of feed, 9 days of S): 1.78% | Percentage of THY transferred to droppings in relation to the amount ingested (THY4, 4 g of thymol/kg of feed, 16 days of S): 1.91% | Percentage of THY transferred to droppings in relation to the amount ingested (THY4, 4 g of thymol/kg of feed, 26 days of S): 2.11% | Percentage of THY transferred to droppings in relation to the amount ingested [2]: 0.12% | THY concentration in droppings [2]: 30.58 ng/g | Percentage of THY transferred to droppings in relation to the amount ingested (THY6, 6.25 g of thymol/kg of feed, 2 days of S): 0.21% | Percentage of THY transferred to droppings in relation to the amount ingested (THY6, 6.25 g of thymol/kg of feed, 9 days of S): 1.33% | Percentage of THY transferred to droppings in relation to the amount ingested (THY6, 6.25 g of thymol/kg of feed, 16 days of S): 1.74% | Percentage of THY transferred to droppings in relation to the amount ingested (THY6, 6.25 g of thymol/kg of feed, 26 days of S): 1.57% | Percentage of THY transferred to droppings in relation to the amount ingested [3]: 0.09% | THY concentration in droppings [3]: 37.95 ng/g | THY transferred to the droppings, of the amount THY ingested (during the plateau, across THY2, THY4, THY6): 1.57–3.47% | concentration at 2 days (2 g/kg of feed, THY2, 2 g of thymol/kg of feed, 2 days of S): 51.8 ng/g | concentration at 9 days (2 g/kg of feed, THY2, 2 g of thymol/kg of feed, 9 days of S): 229 ng/g | concentration at 16 days (2 g/kg of feed, THY2, 2 g of thymol/kg of feed, 16 days of S): 237 ng/g | concentration at 26 days (2 g/kg of feed, THY2, 2 g of thymol/kg of feed, 26 days of S): 342 ng/g | concentration at 2 days (4 g/kg of feed, THY4, 4 g of thymol/kg of feed, 2 days of S): 63.5 ng/g | concentration at 9 days (4 g/kg of feed, THY4, 4 g of thymol/kg of feed, 9 days of S): 459 ng/g | concentration at 16 days (4 g/kg of feed, THY4, 4 g of thymol/kg of feed, 16 days of S): 491 ng/g | concentration at 26 days (4 g/kg of feed, THY4, 4 g of thymol/kg of feed, 26 days of S): 542 ng/g | concentration at 2 days (6.25 g/kg of feed, THY6, 6.25 g of thymol/kg of feed, 2 days of S): 85 ng/g | concentration at 9 days (6.25 g/kg of feed, THY6, 6.25 g of thymol/kg of feed, 9 days of S): 550 ng/g | concentration at 16 days (6.25 g/kg of feed, THY6, 6.25 g of thymol/kg of feed, 16 days of S): 721 ng/g | concentration at 26 days (6.25 g/kg of feed, THY6, 6.25 g of thymol/kg of feed, 26 days of S): 650 ng/g

— paper PMC6508865, “Dynamics of thymol dietary supplementation in quail (Coturnix japonica): Linking bioavailability, effects on egg yolk total fatty acids and performance traits” (PLoS ONE, 2019)
